Experimental data published in paper PMC8757511 (ACS Medicinal Chemistry Letters, 2021).
In brackets after ≈: the same amount, converted by molar mass.

How the values were obtained:
[1] = system: M. tuberculosis strain, H37Ra (ATCC 25177); assay: microbe, parasite or virus in culture; type: cell-based, Mycobacterium tuberculosis; conditions: for MIC: Mycobacterium tuberculosis, ATCC25177|H37RA, read-out: Mtb MIC
PknB [2] = biological target: T1, PknB (Mycobacterium tuberculosis, UniProt P9WI81); assay: biochemical; type: binding
Target sequence in this assay (P9WI81 1-331 limits assumed): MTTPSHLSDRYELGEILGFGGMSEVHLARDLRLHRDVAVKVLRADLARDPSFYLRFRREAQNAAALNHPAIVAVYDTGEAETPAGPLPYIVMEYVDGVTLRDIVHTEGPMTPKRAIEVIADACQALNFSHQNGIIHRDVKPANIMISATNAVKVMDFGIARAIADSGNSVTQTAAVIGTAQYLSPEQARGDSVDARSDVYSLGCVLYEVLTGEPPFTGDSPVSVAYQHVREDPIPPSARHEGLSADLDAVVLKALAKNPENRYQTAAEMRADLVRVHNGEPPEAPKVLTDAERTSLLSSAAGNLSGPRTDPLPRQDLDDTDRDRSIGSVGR

[3] = system: Zebrafish (Danio rerio) embryos; conditions: 5 days
physchem = conditions: pH 7.4, LogD7.4, pH 7.4
PknB [4] = biological target: T1, PknB; assay: biochemical; type: biochemical
Target sequence in this assay (P9WI81 1-331 limits assumed): as above

Cdk2-Cyclin A = Cdk2-Cyclin A (Homo sapiens, UniProt P24941); assay: biochemical; type: biochemical
[5] = system: 453 human kinases (403 wild-type and 50 mutant); type: binding; conditions: 10 μM, KinomeSCAN
[6] = system: THP-1 human macrophage cell line
PknB [7] = biological target: T1, PknB; type: binding; conditions: DiscoverX Kd
Target sequence in this assay (P9WI81 whole entry): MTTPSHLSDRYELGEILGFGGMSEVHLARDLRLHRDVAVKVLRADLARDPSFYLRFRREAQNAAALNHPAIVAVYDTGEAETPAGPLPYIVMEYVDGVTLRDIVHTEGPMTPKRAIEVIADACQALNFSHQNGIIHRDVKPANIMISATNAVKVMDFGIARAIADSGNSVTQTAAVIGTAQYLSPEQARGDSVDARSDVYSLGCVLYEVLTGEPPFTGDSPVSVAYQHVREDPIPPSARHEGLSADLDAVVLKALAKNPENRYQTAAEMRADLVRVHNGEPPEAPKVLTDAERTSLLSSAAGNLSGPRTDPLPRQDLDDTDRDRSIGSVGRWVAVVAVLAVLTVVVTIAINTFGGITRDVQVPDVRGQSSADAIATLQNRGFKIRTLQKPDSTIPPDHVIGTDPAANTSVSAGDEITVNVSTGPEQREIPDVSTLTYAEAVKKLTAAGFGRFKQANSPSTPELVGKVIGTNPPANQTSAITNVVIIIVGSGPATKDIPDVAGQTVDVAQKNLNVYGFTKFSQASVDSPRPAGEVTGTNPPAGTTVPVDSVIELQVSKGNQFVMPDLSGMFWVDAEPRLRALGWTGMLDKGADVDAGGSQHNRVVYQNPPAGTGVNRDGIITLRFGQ

Row | SMILES | % D. rario survival @ 5 μM [3] [%] | MIC [1] [µM] | reduction in Cdk2 biochemical inhibition relative to 1 (Cdk2-Cyclin A) | also measured
1 | CN1CCN(c2ccc(Nc3nccc(-c4cccnc4)n3)cc2C(F)(F)F)CC1 [Compound 4] | – | – | – | worse Mtb MIC than 1 [1]: 2–4 fold
2 | CN1CCN(c2ccc(Nc3nccc(-c4ccncc4)n3)cc2C(F)(F)F)CC1 [Compound 5] | 30 | 50 (≈ 20.7 µg/mL) | – | Kd (PknB [2]): 78 nM; logD (physchem): 3.57; IC50 (PknB [4]): 2100 nM; Ki (PknB [4]): 580 nM; IC50 (Cdk2-Cyclin A): 4600 nM; worse Mtb MIC than 1 [1]: 2–4 fold
3 | CN1CCN(c2ccc(Nc3nccc(-c4ccnc(Cl)c4)n3)cc2C(F)(F)F)CC1 [Compound 6] | ~100 | – | – | –
4 | CNc1cc(-c2ccnc(Nc3ccc(N4CCN(C)CC4)c(C(F)(F)F)c3)n2)ccn1 [Compound 8] | – | – | 28 fold | loss of PknB activity relative to 1 (PknB [4]; relative to 1): 6 fold
5 | CN1CCN(c2ccc(Nc3nccc(-c4ccccc4)n3)cc2C(F)(F)F)CC1 [Compound 9] | ~100 | – | greater than 28 fold | selectivity score (S-score) at 1% of control (S(1)) [5]: 0.084
6 | CN1CCN(c2ccc(Nc3nccc(-c4ccc(Cl)cc4)n3)cc2C(F)(F)F)CC1 [Compound 11] | – | – | greater than 28 fold | –
7 | Cc1ccc(-c2ccnc(Nc3ccc(N4CCN(C)CC4)c(C(F)(F)F)c3)n2)cc1 [Compound 12] | 0 | ≤ 19 | greater than 28 fold | –
8 | CN1CCN(c2ccc(Nc3nccc(-c4cccc(Cl)c4)n3)cc2C(F)(F)F)CC1 [Compound 16] | – | ≤ 19 | greater than 28 fold | improvement in cytotoxicity over 1 ([6]; THP-1, relative to 1): > 2 log unit
9 | CN1CCN(c2ccc(Nc3nccc(-c4cccc([N+](=O)[O-])c4)n3)cc2C(F)(F)F)CC1 [Compound 19] | 0 | ≤ 19 | – | selectivity score (S-score) at 1% of control (S(1)) [5]: 0.12; affinity for PknB vs GSK3β, mTOR, and Pim1 (PknB [7]): > 100 fold
10 | CN1CCN(c2ccc(Nc3nccc(-c4ccc5ccccc5c4)n3)cc2C(F)(F)F)CC1 [Compound 20] | ~100 | – | – | loss in PknB activity relative to 19 (PknB [4]): 3 fold; improvement in THP-1 cytotoxicity relative to 1 ([6]; relative to 1): > 60 fold; lower MIC than inhibitor 19 [1]: 2 fold
